Laboratory results published in ChEMBL document CHEMBL1127822, “6-Alkyl- and 6-arylandrost-4-ene-3,17-diones as aromatase inhibitors. Synthesis and structure-activity relationships” (J Med Chem, 1994).
pIC50, pKi: −log10 of the molar value.

Legend:
Aromatase [1] = molecular target: T1, Aromatase (Homo sapiens, UniProt P11511); assay: Binding affinity for human placental microsome Cytochrome P450 19A1
T1 sequence (P11511 whole entry): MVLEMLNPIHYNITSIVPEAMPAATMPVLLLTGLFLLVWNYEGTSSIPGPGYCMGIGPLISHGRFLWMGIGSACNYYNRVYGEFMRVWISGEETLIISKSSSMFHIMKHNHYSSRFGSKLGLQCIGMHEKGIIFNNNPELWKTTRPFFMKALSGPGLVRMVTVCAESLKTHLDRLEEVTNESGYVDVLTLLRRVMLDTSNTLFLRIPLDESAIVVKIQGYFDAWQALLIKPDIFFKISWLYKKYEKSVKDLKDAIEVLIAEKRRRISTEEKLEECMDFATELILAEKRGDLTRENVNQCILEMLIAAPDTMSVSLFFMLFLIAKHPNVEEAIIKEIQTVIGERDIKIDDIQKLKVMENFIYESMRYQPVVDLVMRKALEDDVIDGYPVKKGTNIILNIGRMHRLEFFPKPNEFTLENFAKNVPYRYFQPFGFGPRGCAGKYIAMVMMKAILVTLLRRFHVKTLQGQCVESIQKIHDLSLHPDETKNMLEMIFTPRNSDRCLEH

Aromatase [2] = molecular target: T1, Aromatase; assay: Inhibitory concentration was tested on Cytochrome P450 19A1 in human placental microsomes 20 (microg) of protein incubated for 20 min; parameters: species or system Placenta
Aromatase [3] = molecular target: T1, Aromatase; assay: Binding affinity for human placental microsome aromatase Cytochrome P450 19A1

SMILES	pKi (Aromatase [1])	pIC50 (Aromatase [2])	pKi (Aromatase [3])
CC[C@H]1CC2C3CCC(=O)C3(C)CCC2C2(C)CCC(=O)C=C12 (some centres not stated)	8.33	6.59	
CCCC[C@@H]1CC2C3CCC(=O)C3(C)CCC2C2(C)CCC(=O)C=C12 (some centres not stated)	8.06	6.29	
CC(C)[C@@H]1CC2C3CCC(=O)C3(C)CCC2C2(C)CCC(=O)C=C12 (some centres not stated)		5.96	7.66
C=C[C@@H]1CC2C3CCC(=O)C3(C)CCC2C2(C)CCC(=O)C=C12 (some centres not stated)		6.49	8.29
CC12CCC3C(C[C@H](c4ccccc4)C4=CC(=O)CCC43C)C1CCC2=O (some centres not stated)		5.96	7.68
CC12CCC3C(C[C@@H](Cc4ccccc4)C4=CC(=O)CCC43C)C1CCC2=O (some centres not stated)		5.40	7.20
CCCC[C@H]1CC2C3CCC(=O)C3(C)CCC2C2(C)CCC(=O)C=C12 (some centres not stated)		6.10	7.92
CC[C@@H]1CC2C3CCC(=O)C3(C)CCC2C2(C)CCC(=O)C=C12 (some centres not stated)	8.85	6.85	
CC(C)[C@H]1CC2C3CCC(=O)C3(C)CCC2C2(C)CCC(=O)C=C12 (some centres not stated)		5.85	7.51
CC12CCC3C(C[C@H](Cc4ccccc4)C4=CC(=O)CCC43C)C1CCC2=O (some centres not stated)		6.18	8.00
C[C@H]1CC2C3CCC(=O)C3(C)CCC2C2(C)CCC(=O)C=C12 (some centres not stated)	8.25	6.46	
CCC[C@H]1CC2C3CCC(=O)C3(C)CCC2C2(C)CCC(=O)C=C12 (some centres not stated)		6.41	8.17
C#C[C@@H]1CC2C3CCC(=O)C3(C)CCC2C2(C)CCC(=O)C=C12 (some centres not stated)	7.21	5.72	
CC12CCC3C(C[C@@H](c4ccccc4)C4=CC(=O)CCC43C)C1CCC2=O (some centres not stated)	7.43	5.77	
CCC[C@@H]1CC2C3CCC(=O)C3(C)CCC2C2(C)CCC(=O)C=C12 (some centres not stated)	8.34	6.62	
C[C@@H]1CC2C3CCC(=O)C3(C)CCC2C2(C)CCC(=O)C=C12 (some centres not stated)	7.96	6.14	
